*1 amine or outer side, *2 acyl side, *3 side chain or, on linkers, in order; H or OH if unused. Where a SMILES comes first, the peptide text is derived from it. Bridges are numbered along the chain shown (N, C = ends). [ ]: non-standard residue; d: D form. Trp(2-yl) = O=C([C@H](Cc1c([*:3])[nH]c2ccccc12)N[*:1])[*:2]; Leu(4R-OH,5-OH) = C[C@](O)(CO)C[C@H](N)C(=O)O; cisHyp = O=C(O)[C@@H]1C[C@H](O)CN1
Species: Rattus norvegicus
Test: Open TG-GATES - Regimen: Daily Repeat
Format: toxicity, organism-based, Sprague-Dawley
Design: regimen Daily Repeat, gender Male, age 6 weeks
Conditions: in vivo, ip, route intraperitoneal injection; for APTT / Bas / Eos / Fbg / Hb / Ht / Lym / MCH / MCHC / MCV / Mono / Neu / PT / Plat / RBC / Ret / WBC: tissue Blood; for KIDNEY_L / KIDNEY_R / KIDNEY_TOTAL: tissue Kidney; for LIVER: tissue Liver; for A/G / ALP / ALT / AST / BUN / CRE / Ca / Cl / DBIL / GLC / IP / K / LDH / Na / PL / RALB / TBIL / TC / TG / TP / gamma-GTP: tissue Plasma
[1] = 0 mg/kg, 72 h, dose level Control, time 3 day
[2] = 0 mg/kg, […], dose level Control, time 7 day
[3] = 1 mg/kg, 72 h, dose level High, time 3 day
[4] = 1 mg/kg, […], dose level High, time 7 day

C[C@@H]1NC(=O)[C@H](C[C@@](C)(O)CO)NC(=O)[C@@H]2Cc3c([nH]c4ccccc34)SC[C@H](NC(=O)[C@@H]([C@H](C)O)NC1=O)C(=O)N1C[C@@H](O)C[C@H]1C(=O)N[C@@H](C)C(=O)N2 [PHALLOIDIN] (cyclo(A[dT]C[cisHyp]A[Trp(2-yl)][Leu(4R-OH,5-OH)]); thioether 3-6)
TERMINAL_BW [1]: 224.8 g | APTT [1]: 23.1 s | Bas [1]: 0% | Eos [1]: 1% | Fbg [1]: 328 mg/dL | Hb [1]: 13 g/dL | Ht [1]: 40.4% | Lym [1]: 83% | MCH [1]: 20.5 pg | MCHC [1]: 32.2% | MCV [1]: 63.5 fL | Mono [1]: 2.8% | Neu [1]: 12.6% | PT [1]: 16.3 s | Plat [1]: 118.5 x10_4/uL | RBC [1]: 636.6 x10_4/ul | Ret [1]: 6.8% | WBC [1]: 113.9 x10_2/uL | KIDNEY_L [1]: 1 g | KIDNEY_R [1]: 1 g | KIDNEY_TOTAL [1]: 1.9 g | LIVER [1]: 10.4 g | A/G [1]: 1.3 | ALP [1]: 1525.8 IU/L | ALT [1]: 42 IU/L | AST [1]: 66.8 IU/L | BUN [1]: 17.4 mg/dL | CRE [1]: 0.2 mg/dL | Ca [1]: 10.8 mg/dL | Cl [1]: 105.4 meq/L | DBIL [1]: 0 mg/dL | GLC [1]: 201.4 mg/dL | IP [1]: 8.4 mg/dL | K [1]: 4.7 meq/L | LDH [1]: 177.6 IU/L | Na [1]: 140.8 meq/L | PL [1]: 139.6 mg/dL | RALB [1]: 3.1 g/dL | TBIL [1]: 0 mg/dL | TC [1]: 78 mg/dL | TG [1]: 116.4 mg/dL | TP [1]: 5.5 g/dL | gamma-GTP [1]: 1.6 IU/L | TERMINAL_BW [2]: 261.3 g | APTT [2]: 23.5 s | Bas [2]: 0% | Eos [2]: 1% | Fbg [2]: 322.2 mg/dL | Hb [2]: 12.9 g/dL | Ht [2]: 39.5% | Lym [2]: 80% | MCH [2]: 20.4 pg | MCHC [2]: 32.6% | MCV [2]: 62.5 fL | Mono [2]: 1.8% | Neu [2]: 16.2% | PT [2]: 15.6 s | Plat [2]: 135.8 x10_4/uL | RBC [2]: 632.2 x10_4/ul | Ret [2]: 6.8% | WBC [2]: 114.9 x10_2/uL | KIDNEY_L [2]: 1.1 g | KIDNEY_R [2]: 1.2 g | KIDNEY_TOTAL [2]: 2.3 g | LIVER [2]: 11.8 g | A/G [2]: 1.2 | ALP [2]: 1235.4 IU/L | ALT [2]: 36.6 IU/L | AST [2]: 63.4 IU/L | BUN [2]: 18 mg/dL | CRE [2]: 0.2 mg/dL | Ca [2]: 10.4 mg/dL | Cl [2]: 105.8 meq/L | DBIL [2]: 0 mg/dL | GLC [2]: 189.8 mg/dL | IP [2]: 8.2 mg/dL | K [2]: 4.4 meq/L | LDH [2]: 160.4 IU/L | Na [2]: 142.6 meq/L | PL [2]: 130.8 mg/dL | RALB [2]: 2.9 g/dL | TBIL [2]: 0.008 mg/dL | TC [2]: 75 mg/dL | TG [2]: 88.6 mg/dL | TP [2]: 5.4 g/dL | gamma-GTP [2]: 2.8 IU/L | TERMINAL_BW [3]: 218.4 g | APTT [3]: 19.4 s | Bas [3]: 0% | Eos [3]: 1.2% | Fbg [3]: 270.8 mg/dL | Hb [3]: 13.5 g/dL | Ht [3]: 42.3% | Lym [3]: 78.2% | MCH [3]: 20.3 pg | MCHC [3]: 32% | MCV [3]: 63.4 fL | Mono [3]: 3.2% | Neu [3]: 16.8% | PT [3]: 15.5 s | Plat [3]: 119.3 x10_4/uL | RBC [3]: 667.2 x10_4/ul | Ret [3]: 6.7% | WBC [3]: 88.5 x10_2/uL | KIDNEY_L [3]: 1.1 g | KIDNEY_R [3]: 1.1 g | KIDNEY_TOTAL [3]: 2.1 g | LIVER [3]: 12 g | A/G [3]: 1.1 | ALP [3]: 2057 IU/L | ALT [3]: 49 IU/L | AST [3]: 85.6 IU/L | BUN [3]: 13.2 mg/dL | CRE [3]: 0.1 mg/dL | Ca [3]: 11.1 mg/dL | Cl [3]: 105.4 meq/L | DBIL [3]: 0.066 mg/dL | GLC [3]: 168.8 mg/dL | IP [3]: 8.3 mg/dL | K [3]: 5.2 meq/L | LDH [3]: 169.2 IU/L | Na [3]: 140.4 meq/L | PL [3]: 153.6 mg/dL | RALB [3]: 3 g/dL | TBIL [3]: 0.084 mg/dL | TC [3]: 107.4 mg/dL | TG [3]: 24.2 mg/dL | TP [3]: 5.8 g/dL | gamma-GTP [3]: 1.6 IU/L | TERMINAL_BW [4]: 244 g | APTT [4]: 17.6 s | Bas [4]: 0% | Eos [4]: 1.2% | Fbg [4]: 254.4 mg/dL | Hb [4]: 13.7 g/dL | Ht [4]: 41.8% | Lym [4]: 79.6% | MCH [4]: 19.6 pg | MCHC [4]: 32.9% | MCV [4]: 59.6 fL | Mono [4]: 3% | Neu [4]: 15.8% | PT [4]: 14.8 s | Plat [4]: 150.8 x10_4/uL | RBC [4]: 702.8 x10_4/ul | Ret [4]: 4.1% | WBC [4]: 147.5 x10_2/uL | KIDNEY_L [4]: 1.1 g | KIDNEY_R [4]: 1.1 g | KIDNEY_TOTAL [4]: 2.2 g | LIVER [4]: 13.9 g | A/G [4]: 0.8 | ALP [4]: 2253.4 IU/L | ALT [4]: 86.2 IU/L | AST [4]: 202.2 IU/L | BUN [4]: 15 mg/dL | CRE [4]: 0.1 mg/dL | Ca [4]: 10.7 mg/dL | Cl [4]: 104.6 meq/L | DBIL [4]: 0.3 mg/dL | GLC [4]: 177.8 mg/dL | IP [4]: 7.3 mg/dL | K [4]: 4.8 meq/L | LDH [4]: 258.2 IU/L | Na [4]: 141 meq/L | PL [4]: 168 mg/dL | RALB [4]: 2.6 g/dL | TBIL [4]: 0.4 mg/dL | TC [4]: 115.6 mg/dL | TG [4]: 28.6 mg/dL | TP [4]: 5.8 g/dL | gamma-GTP [4]: 3.2 IU/L

Source: ChEMBL document CHEMBL3885861, “Open TG-GATES”
